Measurements as given in patent publication US20130143929A1, “FUNGICIDAL IMIDAZOLES” (EI DU PONT DE NEMOURS AND COMPANY, priority 2010, published 2013).
Marks after values point to notes of the source that are not given here.

Assays:
Assay type in all cases: in vivo
[1] = test system: Puccinia recondite f. sp. tritici (the causal agent of wheat leaf rust); test: Test A: wheat leaf rust, preventive spray on wheat seedlings, visual disease rating; conditions: for Test A rating (100 = 100% disease control, 0 = no disease control relative to the controls): wheat leaf rust, preventive spray on wheat seedlings, no asterisk (standard test suspension concentration, not 40 ppm); for Test A rating (% disease control, wheat leaf rust): 100 = 100% disease control
Method in brief: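 Wheat seedlings were sprayed to run-off with compound suspended in acetone/water containing 250 ppm Trem 014 (200 ppm ≈ 800 g/ha; some at 40 ppm). Puccinia recondite spores were inoculated the next day. Plants were held 24 h saturated at 20° C, then 7 days at 20° C, and disease control was rated visually on a 0–100 scale against controls.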

[2] = test system: Septoria tritici (the causal agent of wheat leaf blotch); test: Test B: wheat leaf blotch, preventive spray on wheat seedlings, visual disease rating; conditions: for Test B rating (100 = 100% disease control, 0 = no disease control relative to the controls): wheat leaf blotch, preventive spray on wheat seedlings, no asterisk (standard test suspension concentration, not 40 ppm); for Test B rating (% disease control, wheat leaf blotch): 100 = 100% disease control
Method in brief: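 Wheat seedlings sprayed to run-off with compound suspension (acetone/water with 250 ppm Trem 014; 200 ppm ≈ 800 g/ha, some at 40 ppm), inoculated next day with Septoria tritici spores. 48 h saturated humidity at 24 °C, then 19 days at 20 °C; visual rating, 100 = full control.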

[3] = test system: Botrytis cinerea (the causal agent of tomato Botrytis); test: Test C: tomato Botrytis, preventive spray on tomato seedlings, visual disease rating; conditions: for Test C rating (100 = 100% disease control, 0 = no disease control relative to the controls): tomato Botrytis, preventive spray on tomato seedlings, no asterisk (standard test suspension concentration, not 40 ppm); for Test C rating (% disease control, tomato Botrytis): 100 = 100% disease control
Method in brief: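 Test suspension (acetone/water with 250 ppm Trem 014; 200 ppm equivalent to 800 g/ha) sprayed to run-off on tomato seedlings; B. cinerea spores inoculated next day. After 48 h saturated humidity at 20° C then 3 days at 24° C, disease rated visually as % control relative to untreated controls (0–100).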

[4] = test system: Blumeria graminis f. sp. tritici (also known as Erysiphe graminis f. sp. tritici, the causal agent of wheat powdery mildew); test: Test D: wheat powdery mildew, preventive spray on wheat seedlings, visual disease rating; conditions: for Test D rating (100 = 100% disease control, 0 = no disease control relative to the controls): wheat powdery mildew, preventive spray on wheat seedlings, no asterisk (standard test suspension concentration, not 40 ppm); for Test D rating (% disease control, wheat powdery mildew): 100 = 100% disease control
Method in brief: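 Compound suspended in acetone/water (50/50) with 250 ppm Trem 014 and sprayed to run-off on wheat seedlings (200 ppm ≈ 800 g/ha), then inoculated next day with spore dust. Disease rated visually after 8 days at 20 °C as % control relative to untreated plants (0-100).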

[5] = no asterisk: standard test suspension concentration, 0 = no control relative to controls
[6] = asterisk: 40 ppm test suspension, 0 = no control

SMILES | Test A rating (100 = 100% disease control, 0 = no disease control relative to the controls) [1] [%] | Test B rating (100 = 100% disease control, 0 = no disease control relative to the controls) [2] [%] | Test C rating (100 = 100% disease control, 0 = no disease control relative to the controls) [3] [%] | Test D rating (100 = 100% disease control, 0 = no disease control relative to the controls) [4] [%] | Test D rating (% disease control, wheat powdery mildew) [4, 5] [%] | further results
Cc1ncc(C(O)c2c(F)cc(Cl)cc2F)n1-c1ccc(F)cc1Cl (centres unmarked) [compound 359] | 68 | 0 | 0 | 0 | – | –
Cc1ncc(C(O)c2ccc(F)cc2Cl)n1-c1ccc(F)cc1F (centres unmarked) [compound 360] | 99 | 93 | 67 | 0 | – | –
Cc1ncc(C(O)c2c(F)cc(F)cc2F)n1-c1ccc(Cl)cc1Cl (centres unmarked) [compound 361] | 95 | 15 | 9 | 0 | – | –
Cc1nc(Br)c(C(O)c2c(F)cc(Cl)cc2F)n1-c1ccc(F)cc1Cl (centres unmarked) [compound 362] | 99 | 85 | 0 | 0 | – | –
COc1cc(F)c(C(O)c2cnc(C)n2-c2ccc(F)cc2Cl)c(F)c1 (centres unmarked) [compound 363] | 98 | 74 | 9 | 0 | – | –
COc1cc(F)c(C(O)c2c(Br)nc(C)n2-c2ccc(F)cc2Cl)c(F)c1 (centres unmarked) [compound 364] | 100 | 100 | 100 | 95 | – | –
Cc1nc(Br)c(C(O)c2c(F)cc(F)cc2F)n1-c1ccc(Cl)cc1Cl (centres unmarked) [compound 365] | 100 | 100 | 100 | 64 | – | –
Cc1cc(F)ccc1C(O)c1c(Cl)nc(C)n1-c1c(Cl)cccc1Cl (centres unmarked) [compound 366] | 99 | 100 | 100 | 97 | – | –
Cc1cc(F)ccc1C(O)c1c(Br)nc(C)n1-c1c(Cl)cccc1Cl (centres unmarked) [compound 367] | 98 | 100 | 96 | 96 | – | –
Cc1cc(F)ccc1C(O)c1cnc(C)n1-c1c(F)cc(F)cc1Cl (centres unmarked) [compound 368] | 100 | 100 | 99 | 0 | – | –
Cc1ncc(C(O)c2ccc(F)cc2Cl)n1-c1c(F)cc(F)cc1Cl (centres unmarked) [compound 370] | 100 | 100 | 100 | 0 | – | –
Cc1ncc(C(O)c2ccc(Cl)cc2Cl)n1-c1c(F)cc(F)cc1Cl (centres unmarked) [compound 371] | 95 | 100 | 58 | 0 | – | –
Cc1ncc(C(O)c2ccc(Cl)cc2)n1-c1ccc(F)cc1F (centres unmarked) [compound 378] | – | – | – | – | 0 | Test A rating (% disease control, wheat leaf rust) [1, 5]: 37%; Test B rating (% disease control, wheat leaf blotch) [2, 5]: 74%; Test C rating (% disease control, tomato Botrytis) [3, 5]: 0%
Cc1cc(F)ccc1C(O)c1c(Br)nc(C)n1-c1ccc(F)cc1F (centres unmarked) [compound 379] | – | – | – | – | 79 | Test A rating (% disease control, wheat leaf rust) [1, 5]: 100%; Test B rating (% disease control, wheat leaf blotch) [2, 5]: 100%; Test C rating (% disease control, tomato Botrytis) [3, 5]: 99%
Cc1nc(Br)c(C(O)c2ccc(Cl)cc2)n1-c1ccc(F)cc1F (centres unmarked) [compound 380] | – | – | – | – | 0 | Test A rating (% disease control, wheat leaf rust) [1, 5]: 98%; Test B rating (% disease control, wheat leaf blotch) [2, 5]: 100%; Test C rating (% disease control, tomato Botrytis) [3, 5]: 100%
Cc1ncc(C(O)c2ccc(F)cc2F)n1-c1ccc(F)cc1F (centres unmarked) [compound 381] | – | – | – | – | 0 | Test A rating (% disease control, wheat leaf rust) [1, 5]: 88%; Test B rating (% disease control, wheat leaf blotch) [2, 5]: 97%; Test C rating (% disease control, tomato Botrytis) [3, 5]: 0%
Cc1nc(Br)c(C(O)c2ccc(F)cc2F)n1-c1ccc(F)cc1F (centres unmarked) [compound 382] | – | – | – | – | 0 | Test A rating (% disease control, wheat leaf rust) [1, 5]: 100%; Test B rating (% disease control, wheat leaf blotch) [2, 5]: 100%; Test C rating (% disease control, tomato Botrytis) [3, 5]: 99%
Cc1nc(Cl)c(C(O)c2ccc(F)cc2Br)n1-c1c(F)cccc1F (centres unmarked) [compound 383] | – | – | – | – | – | Test A rating (% disease control, wheat leaf rust) [1, 6]: 100* %; Test B rating (% disease control, wheat leaf blotch) [2, 6]: 100* %; Test C rating (% disease control, tomato Botrytis) [3, 6]: 99* %; Test D rating (% disease control, wheat powdery mildew) [4, 6]: 92* %
Cc1nc(Br)c(C(O)c2ccc(F)cc2Br)n1-c1c(F)cccc1F (centres unmarked) [compound 384] | – | – | – | – | – | Test A rating (% disease control, wheat leaf rust) [1, 6]: 100* %; Test B rating (% disease control, wheat leaf blotch) [2, 6]: 100* %; Test C rating (% disease control, tomato Botrytis) [3, 6]: 65* %; Test D rating (% disease control, wheat powdery mildew) [4, 6]: 72* %
Cc1nc(Cl)c(C(O)c2ccc(F)cc2Br)n1-c1c(F)cccc1Cl (centres unmarked) [compound 386] | – | – | – | – | – | Test A rating (% disease control, wheat leaf rust) [1, 6]: 100* %; Test B rating (% disease control, wheat leaf blotch) [2, 6]: 100* %; Test C rating (% disease control, tomato Botrytis) [3, 6]: 100* %; Test D rating (% disease control, wheat powdery mildew) [4, 6]: 73* %
Cc1nc(Br)c(C(O)c2ccc(F)cc2Br)n1-c1c(F)cccc1Cl (centres unmarked) [compound 387] | – | – | – | – | 90 | Test A rating (% disease control, wheat leaf rust) [1, 6]: 100* %; Test B rating (% disease control, wheat leaf blotch) [2, 6]: 100* %; Test C rating (% disease control, tomato Botrytis) [3, 6]: 99* %
Cc1nc(Cl)c(C(O)c2ccc(F)cc2F)n1-c1c(F)cccc1Cl (centres unmarked) [compound 389] | – | – | – | – | 98 | Test A rating (% disease control, wheat leaf rust) [1, 6]: 100* %; Test B rating (% disease control, wheat leaf blotch) [2, 6]: 100* %; Test C rating (% disease control, tomato Botrytis) [3, 6]: 100* %
COc1cc(F)c(-n2c(C)nc(Br)c2C(O)c2ccc(F)cc2C)c(F)c1 (centres unmarked) [compound 391] | – | – | – | – | – | Test A rating (% disease control, wheat leaf rust) [1, 6]: 99* %; Test B rating (% disease control, wheat leaf blotch) [2, 6]: 100* %; Test C rating (% disease control, tomato Botrytis) [3, 6]: 0* %; Test D rating (% disease control, wheat powdery mildew) [4, 6]: 0* %
